Here are results for seven molecules from ChEMBL document CHEMBL1145498, “A systematic interaction map of validated kinase inhibitors with Ser/Thr kinases” (Proc Natl Acad Sci U S A, 2007).

Each structure is given as a SMILES string.

In experiment [1] the target is Calcium/calmodulin-dependent protein kinase type 1D (Homo sapiens) (UniProt Q8IU85).
For experiment [2], the target named is Calcium/calmodulin-dependent protein kinase type II subunit gamma (Homo sapiens) (UniProt Q13555).
Experiment [3] addresses T1, Calcium/calmodulin-dependent protein kinase type IV (Homo sapiens) (UniProt Q16566).
T1 sequence (whole entry): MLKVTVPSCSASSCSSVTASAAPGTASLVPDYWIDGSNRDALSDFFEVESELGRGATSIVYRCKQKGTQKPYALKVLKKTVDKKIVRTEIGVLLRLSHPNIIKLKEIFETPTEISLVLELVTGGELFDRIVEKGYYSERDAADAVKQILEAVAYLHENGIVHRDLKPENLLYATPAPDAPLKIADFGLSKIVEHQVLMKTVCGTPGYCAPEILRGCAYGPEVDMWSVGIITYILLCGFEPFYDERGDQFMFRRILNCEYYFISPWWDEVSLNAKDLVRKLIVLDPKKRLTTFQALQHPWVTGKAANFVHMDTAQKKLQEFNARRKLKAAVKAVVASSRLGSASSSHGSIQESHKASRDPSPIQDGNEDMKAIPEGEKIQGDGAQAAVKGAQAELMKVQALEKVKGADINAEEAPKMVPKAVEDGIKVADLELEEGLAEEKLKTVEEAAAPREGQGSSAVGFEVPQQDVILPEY

Experiment [4] concerns the target Cyclin-dependent kinase 2 (Homo sapiens, UniProt P24941).
For experiment [5], the target named is Serine/threonine-protein kinase Chk2 (Homo sapiens, UniProt O96017).
The target of experiment [6] is Dual specificity mitogen-activated protein kinase kinase 2 (Homo sapiens, UniProt P36507).
Experiment [7] concerns the target Mitogen-activated protein kinase 11 (Homo sapiens, UniProt Q15759).
For experiment [8], the target named is Mitogen-activated protein kinase 3 (Homo sapiens, UniProt P27361).
Experiment [9] addresses T2, Serine/threonine-protein kinase Nek2 (Homo sapiens) (UniProt P51955).
T2 sequence (whole entry): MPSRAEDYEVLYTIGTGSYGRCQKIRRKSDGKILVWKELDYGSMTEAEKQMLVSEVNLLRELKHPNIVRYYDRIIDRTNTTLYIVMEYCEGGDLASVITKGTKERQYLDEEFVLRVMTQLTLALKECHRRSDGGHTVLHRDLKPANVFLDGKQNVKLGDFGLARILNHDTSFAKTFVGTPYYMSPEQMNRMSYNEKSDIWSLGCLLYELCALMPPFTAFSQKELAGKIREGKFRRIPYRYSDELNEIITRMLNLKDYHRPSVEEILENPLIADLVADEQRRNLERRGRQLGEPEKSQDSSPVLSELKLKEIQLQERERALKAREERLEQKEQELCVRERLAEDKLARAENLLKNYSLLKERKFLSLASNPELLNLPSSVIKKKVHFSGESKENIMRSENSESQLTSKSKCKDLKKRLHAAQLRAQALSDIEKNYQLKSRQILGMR

Experiment [10] deals with Serine/threonine-protein kinase PAK 6 (Homo sapiens) (UniProt Q9NQU5).
In experiment [11] the target is Serine/threonine-protein kinase pim-1 (Homo sapiens) (UniProt P11309).
The target of experiment [12] is Serine/threonine-protein kinase pim-2 (Homo sapiens, UniProt Q9P1W9).
Experiment [13] has as its target Serine/threonine-protein kinase RIO2 (Homo sapiens) (UniProt Q9BVS4).
In experiment [14] the target is STE20-like serine/threonine-protein kinase (Homo sapiens) (UniProt Q9H2G2).
Experiment [15] addresses Serine/threonine-protein kinase 10 (Homo sapiens) (UniProt O94804).
Experiment [16] deals with Serine/threonine-protein kinase 38 (Homo sapiens) (UniProt Q15208).
Experiment [17] has as its target Serine/threonine-protein kinase 26 (Homo sapiens) (UniProt Q9P289).
Experiment [18] deals with T3, Serine/threonine-protein kinase 4 (Homo sapiens) (UniProt Q13043).
T3 sequence (whole entry): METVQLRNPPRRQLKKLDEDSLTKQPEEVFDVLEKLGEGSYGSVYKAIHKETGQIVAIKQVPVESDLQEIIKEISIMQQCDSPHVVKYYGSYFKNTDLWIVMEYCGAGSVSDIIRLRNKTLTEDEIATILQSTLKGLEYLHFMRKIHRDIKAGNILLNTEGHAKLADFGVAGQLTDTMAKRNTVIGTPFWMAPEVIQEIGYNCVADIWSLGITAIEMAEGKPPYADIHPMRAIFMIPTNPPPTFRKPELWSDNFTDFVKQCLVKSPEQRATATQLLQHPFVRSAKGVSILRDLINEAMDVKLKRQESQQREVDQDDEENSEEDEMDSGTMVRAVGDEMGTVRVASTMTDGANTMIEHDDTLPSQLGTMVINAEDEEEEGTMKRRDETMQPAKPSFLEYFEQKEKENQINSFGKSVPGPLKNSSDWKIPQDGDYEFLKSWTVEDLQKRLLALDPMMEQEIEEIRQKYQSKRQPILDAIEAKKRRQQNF

Experiment [19] addresses TRAF2 and NCK-interacting protein kinase (Homo sapiens) (UniProt Q9UKE5).
The target of experiment [20] is T4, Serine/threonine-protein kinase VRK3 (Homo sapiens) (UniProt Q8IV63).
T4 sequence (whole entry): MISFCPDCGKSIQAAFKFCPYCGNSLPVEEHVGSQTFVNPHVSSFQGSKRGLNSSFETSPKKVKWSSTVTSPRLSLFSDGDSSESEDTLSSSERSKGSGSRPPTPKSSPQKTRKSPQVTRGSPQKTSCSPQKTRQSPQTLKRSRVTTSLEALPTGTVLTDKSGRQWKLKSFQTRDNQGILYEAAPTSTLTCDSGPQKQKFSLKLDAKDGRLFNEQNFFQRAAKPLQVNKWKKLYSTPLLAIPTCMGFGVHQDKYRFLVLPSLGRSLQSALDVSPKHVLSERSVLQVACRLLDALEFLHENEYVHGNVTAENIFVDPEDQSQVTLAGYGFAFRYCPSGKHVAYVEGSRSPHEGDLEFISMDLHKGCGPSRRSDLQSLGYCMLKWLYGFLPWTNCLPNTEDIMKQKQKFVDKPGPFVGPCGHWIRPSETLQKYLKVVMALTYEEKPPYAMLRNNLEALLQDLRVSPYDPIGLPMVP

Mitogen-activated protein kinase 3, sequence (P27361 whole entry): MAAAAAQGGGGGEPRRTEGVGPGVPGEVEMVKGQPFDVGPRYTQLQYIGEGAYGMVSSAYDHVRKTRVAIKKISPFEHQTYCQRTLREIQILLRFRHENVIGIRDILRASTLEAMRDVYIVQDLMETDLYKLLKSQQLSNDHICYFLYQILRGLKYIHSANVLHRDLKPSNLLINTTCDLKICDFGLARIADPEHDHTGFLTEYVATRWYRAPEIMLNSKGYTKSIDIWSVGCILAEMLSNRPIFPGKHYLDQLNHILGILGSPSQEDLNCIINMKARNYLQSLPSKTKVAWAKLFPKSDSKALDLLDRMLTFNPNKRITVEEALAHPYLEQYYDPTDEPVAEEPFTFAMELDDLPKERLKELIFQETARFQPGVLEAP
Mitogen-activated protein kinase 11, sequence (Q15759 whole entry): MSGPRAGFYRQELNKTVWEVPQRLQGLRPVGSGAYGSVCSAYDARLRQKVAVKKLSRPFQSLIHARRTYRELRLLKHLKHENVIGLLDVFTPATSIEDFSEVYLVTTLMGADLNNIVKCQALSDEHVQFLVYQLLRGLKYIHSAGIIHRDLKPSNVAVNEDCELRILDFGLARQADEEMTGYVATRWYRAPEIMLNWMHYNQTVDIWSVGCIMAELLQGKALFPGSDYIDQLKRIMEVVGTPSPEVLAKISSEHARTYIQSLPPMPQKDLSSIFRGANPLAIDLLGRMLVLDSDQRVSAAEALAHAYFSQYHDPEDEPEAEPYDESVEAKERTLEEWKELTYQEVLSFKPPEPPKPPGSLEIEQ
Serine/threonine-protein kinase pim-1 (Homo sapiens), sequence (P11309 whole entry, looked up): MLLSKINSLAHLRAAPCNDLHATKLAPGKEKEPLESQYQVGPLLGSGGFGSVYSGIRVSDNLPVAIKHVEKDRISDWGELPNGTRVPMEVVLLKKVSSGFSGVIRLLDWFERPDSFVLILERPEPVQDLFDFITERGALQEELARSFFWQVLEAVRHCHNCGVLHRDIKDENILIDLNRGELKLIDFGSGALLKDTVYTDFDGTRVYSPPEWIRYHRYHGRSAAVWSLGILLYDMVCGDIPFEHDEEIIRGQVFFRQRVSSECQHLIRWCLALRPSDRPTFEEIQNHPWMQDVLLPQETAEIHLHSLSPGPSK
Calcium/calmodulin-dependent protein kinase type 1D (Homo sapiens), sequence (Q8IU85 whole entry, looked up): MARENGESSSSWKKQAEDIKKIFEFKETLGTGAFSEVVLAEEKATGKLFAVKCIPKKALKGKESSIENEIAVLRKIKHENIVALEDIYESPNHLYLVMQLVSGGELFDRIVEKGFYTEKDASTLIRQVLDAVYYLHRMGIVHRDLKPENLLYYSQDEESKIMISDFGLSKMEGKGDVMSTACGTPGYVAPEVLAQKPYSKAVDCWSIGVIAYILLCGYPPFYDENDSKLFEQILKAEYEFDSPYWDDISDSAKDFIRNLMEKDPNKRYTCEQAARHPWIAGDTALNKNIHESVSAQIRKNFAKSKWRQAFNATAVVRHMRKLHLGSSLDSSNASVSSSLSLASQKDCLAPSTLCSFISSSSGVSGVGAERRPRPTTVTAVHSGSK
Serine/threonine-protein kinase 26 (Homo sapiens), sequence (Q9P289 2-416 limits assumed): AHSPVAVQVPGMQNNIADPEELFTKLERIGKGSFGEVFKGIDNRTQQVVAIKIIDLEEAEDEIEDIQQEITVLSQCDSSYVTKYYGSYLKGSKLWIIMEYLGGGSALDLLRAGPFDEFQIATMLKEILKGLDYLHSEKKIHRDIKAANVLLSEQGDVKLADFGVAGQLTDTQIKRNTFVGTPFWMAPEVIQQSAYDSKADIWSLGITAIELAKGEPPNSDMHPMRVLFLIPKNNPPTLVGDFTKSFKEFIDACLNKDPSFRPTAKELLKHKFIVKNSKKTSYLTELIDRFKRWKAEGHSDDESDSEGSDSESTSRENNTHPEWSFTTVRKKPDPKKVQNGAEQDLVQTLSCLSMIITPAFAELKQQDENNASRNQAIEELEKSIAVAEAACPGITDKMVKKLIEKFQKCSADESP
STE20-like serine/threonine-protein kinase (Homo sapiens), sequence (Q9H2G2 whole entry, looked up): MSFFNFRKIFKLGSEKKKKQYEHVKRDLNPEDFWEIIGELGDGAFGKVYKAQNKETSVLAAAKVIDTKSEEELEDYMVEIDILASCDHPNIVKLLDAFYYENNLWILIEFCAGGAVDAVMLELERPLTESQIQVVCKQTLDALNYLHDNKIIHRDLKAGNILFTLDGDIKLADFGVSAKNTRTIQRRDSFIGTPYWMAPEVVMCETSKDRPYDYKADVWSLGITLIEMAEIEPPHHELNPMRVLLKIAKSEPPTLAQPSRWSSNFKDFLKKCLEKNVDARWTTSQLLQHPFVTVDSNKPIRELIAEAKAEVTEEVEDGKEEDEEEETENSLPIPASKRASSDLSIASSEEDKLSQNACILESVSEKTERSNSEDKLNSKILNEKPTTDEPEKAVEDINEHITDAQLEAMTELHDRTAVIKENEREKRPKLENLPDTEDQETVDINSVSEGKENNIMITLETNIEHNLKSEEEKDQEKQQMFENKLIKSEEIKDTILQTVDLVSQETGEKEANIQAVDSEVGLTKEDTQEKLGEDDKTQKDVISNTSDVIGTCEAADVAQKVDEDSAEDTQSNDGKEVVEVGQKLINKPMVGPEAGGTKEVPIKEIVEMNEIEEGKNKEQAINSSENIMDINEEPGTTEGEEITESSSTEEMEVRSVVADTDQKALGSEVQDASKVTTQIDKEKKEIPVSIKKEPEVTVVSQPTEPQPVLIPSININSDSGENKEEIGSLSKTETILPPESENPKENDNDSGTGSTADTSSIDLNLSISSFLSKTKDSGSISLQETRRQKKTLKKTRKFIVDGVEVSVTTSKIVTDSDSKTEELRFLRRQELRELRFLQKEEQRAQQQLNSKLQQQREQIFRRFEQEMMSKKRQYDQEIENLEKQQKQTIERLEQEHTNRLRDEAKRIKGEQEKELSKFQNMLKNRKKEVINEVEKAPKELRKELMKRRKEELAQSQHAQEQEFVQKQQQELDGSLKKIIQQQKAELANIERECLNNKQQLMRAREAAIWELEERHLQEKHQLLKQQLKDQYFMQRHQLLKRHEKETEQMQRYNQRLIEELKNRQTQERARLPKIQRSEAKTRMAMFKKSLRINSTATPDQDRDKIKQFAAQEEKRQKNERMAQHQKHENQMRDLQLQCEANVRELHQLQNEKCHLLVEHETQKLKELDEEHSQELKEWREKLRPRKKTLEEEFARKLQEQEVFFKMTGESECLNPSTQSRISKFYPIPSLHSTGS
Serine/threonine-protein kinase 10 (Homo sapiens), sequence (O94804 whole entry, looked up): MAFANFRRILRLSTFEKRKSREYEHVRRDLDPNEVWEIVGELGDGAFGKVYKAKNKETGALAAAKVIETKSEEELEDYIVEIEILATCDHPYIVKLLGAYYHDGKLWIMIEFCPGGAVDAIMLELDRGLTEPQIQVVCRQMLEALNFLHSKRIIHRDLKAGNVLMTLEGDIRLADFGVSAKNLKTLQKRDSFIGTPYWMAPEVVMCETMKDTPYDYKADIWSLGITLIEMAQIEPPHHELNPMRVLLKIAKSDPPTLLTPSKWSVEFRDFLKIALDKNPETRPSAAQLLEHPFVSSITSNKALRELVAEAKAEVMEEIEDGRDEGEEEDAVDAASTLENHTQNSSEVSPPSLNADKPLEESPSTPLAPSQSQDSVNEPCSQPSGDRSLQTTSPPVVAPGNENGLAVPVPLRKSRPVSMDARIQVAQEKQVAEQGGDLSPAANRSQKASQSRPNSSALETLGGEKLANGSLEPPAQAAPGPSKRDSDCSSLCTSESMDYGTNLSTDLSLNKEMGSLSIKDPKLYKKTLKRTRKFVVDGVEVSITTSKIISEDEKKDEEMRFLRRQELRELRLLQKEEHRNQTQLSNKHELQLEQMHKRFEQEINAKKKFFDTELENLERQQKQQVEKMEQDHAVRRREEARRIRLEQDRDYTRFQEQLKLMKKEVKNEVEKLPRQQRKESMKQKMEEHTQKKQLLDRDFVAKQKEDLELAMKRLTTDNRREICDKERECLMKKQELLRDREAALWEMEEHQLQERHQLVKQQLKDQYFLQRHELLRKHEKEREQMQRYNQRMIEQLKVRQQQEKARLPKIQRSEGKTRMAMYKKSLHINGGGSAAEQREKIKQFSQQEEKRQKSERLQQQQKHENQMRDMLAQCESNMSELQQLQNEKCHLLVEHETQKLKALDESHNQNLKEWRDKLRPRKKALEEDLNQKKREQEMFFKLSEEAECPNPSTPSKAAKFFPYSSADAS
Serine/threonine-protein kinase 38 (Homo sapiens), sequence (Q15208 2-465 limits assumed): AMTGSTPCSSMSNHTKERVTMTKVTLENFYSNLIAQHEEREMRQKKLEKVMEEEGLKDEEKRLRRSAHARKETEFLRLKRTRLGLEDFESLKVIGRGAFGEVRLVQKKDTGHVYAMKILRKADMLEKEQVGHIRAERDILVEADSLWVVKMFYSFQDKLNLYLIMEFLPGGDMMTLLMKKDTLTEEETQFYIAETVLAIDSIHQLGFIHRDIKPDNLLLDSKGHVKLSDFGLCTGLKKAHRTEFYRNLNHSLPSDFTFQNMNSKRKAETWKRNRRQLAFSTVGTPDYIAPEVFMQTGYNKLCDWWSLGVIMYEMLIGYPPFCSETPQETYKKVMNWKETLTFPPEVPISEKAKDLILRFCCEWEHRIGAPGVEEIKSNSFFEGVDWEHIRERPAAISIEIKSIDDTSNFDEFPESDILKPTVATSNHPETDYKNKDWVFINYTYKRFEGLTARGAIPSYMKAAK
Dual specificity mitogen-activated protein kinase kinase 2, sequence (P36507 whole entry): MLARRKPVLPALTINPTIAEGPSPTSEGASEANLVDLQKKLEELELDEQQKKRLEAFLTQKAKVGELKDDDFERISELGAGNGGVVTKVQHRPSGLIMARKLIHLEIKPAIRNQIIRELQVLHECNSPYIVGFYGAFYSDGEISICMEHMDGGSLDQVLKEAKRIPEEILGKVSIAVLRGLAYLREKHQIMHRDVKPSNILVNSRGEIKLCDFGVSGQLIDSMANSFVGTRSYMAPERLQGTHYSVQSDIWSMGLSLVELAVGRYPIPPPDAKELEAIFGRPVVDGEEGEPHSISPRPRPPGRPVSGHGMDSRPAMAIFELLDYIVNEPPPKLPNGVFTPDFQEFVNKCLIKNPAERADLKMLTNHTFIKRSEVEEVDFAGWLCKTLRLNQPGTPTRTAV

On to `C/C(O)=C(\C#N)C(=O)Nc1cc(Br)ccc1Br`, for which the ΔTm (commonly the shift of the melting midpoint relative to a reference) in [1] is 0.3 °C; in experiment [2], -0.1 °C; in experiment [3], 0.1 °C; in experiment [4], 1 °C; in experiment [5] it was 0.5 °C; in experiment [6], -0.2 °C. The shift in melting temperature (ΔTm) in [7] was 0.3 °C; in experiment [8], 0.3 °C; in experiment [9], 0.9 °C; in experiment [10], -0.2 °C; in experiment [11], 1.4 °C; in [12], 1.9 °C. Also, the ΔTm is 1.5 °C in [13]; 0.4 °C in experiment [14]; 0.9 °C in experiment [15]; -0.1 °C in [16]; -0.1 °C in [17]; 0.2 °C in experiment [18]. Also, the ΔTm is -0.1 °C in experiment [19] and -0.3 °C in experiment [20].
Turning to `COc1cc(/C=C/C(=O)CC(=O)/C=C/c2ccc(O)c(OC)c2)ccc1O` [CURCUMIN], the thermal shift (ΔTm) is 2 °C in experiment [1]; -0.2 °C in experiment [2]; 2.1 °C in experiment [3]; 1.9 °C in experiment [4]; 5.4 °C in [5]; 2.8 °C in experiment [6]. For the same molecule, the shift in melting temperature (ΔTm) in experiment [7] came out at 3.7 °C; in experiment [8], 0.8 °C; in experiment [9], 1.1 °C; in experiment [10] it was 1.6 °C; in experiment [11] it was 2.5 °C; in experiment [12], 2.9 °C. The thermal shift (ΔTm) turned out to be 2.8 °C in experiment [13]; 3.2 °C in experiment [14]; 6.1 °C in experiment [15]; 2.5 °C in experiment [16]; 2.9 °C in [17]; 5.5 °C in experiment [18]. Further, the shift in melting temperature (ΔTm) in experiment [19] turned out to be 5.9 °C; in experiment [20], 1.3 °C.
Take `CCN(CC)CCNC(=O)c1c(C)[nH]c(/C=C2\C(=O)Nc3ccc(Cl)cc32)c1C` [SU-11652]: the ΔTm in [1] came out at 2.6 °C; in experiment [2] it was 6.2 °C; in experiment [3], 3.3 °C; in experiment [4], 0.9 °C; in experiment [5], 10.3 °C; in experiment [6], 6.3 °C. For the same molecule, the ΔTm in [7] is -0.4 °C; in experiment [8], 0 °C; in experiment [9] it was 5.1 °C; in experiment [10], 4.4 °C; in experiment [11] it was 2.9 °C; in [12] it was 2.3 °C. Further, the ΔTm in experiment [13] was found to be 1.6 °C; in experiment [14], 7.5 °C; in experiment [15] it was 8.1 °C; in experiment [16], 2.7 °C; in experiment [17], 5.8 °C; in [18] it was 10.2 °C. Also, the ΔTm in experiment [19] amounted to 8.3 °C; in experiment [20], 0.3 °C.
For `C[S+]([O-])c1ccc(-c2nc(-c3ccc(F)cc3)c(-c3ccncc3)[nH]2)cc1` (stereo not given) [SB-203580], the thermal shift (ΔTm) was -0.2 °C in experiment [1]; 0 °C in experiment [2]; 0 °C in experiment [3]; -0.1 °C in [4]; -0.5 °C in experiment [5]; 0.2 °C in experiment [6]. Further, the ΔTm in experiment [7] was 9.6 °C; in experiment [8] it was 0.1 °C; in experiment [9], 0.3 °C; in experiment [10] it was 0 °C; in experiment [11], -2.1 °C; in [12] it was 0 °C. Also, the thermal shift (ΔTm) was -0.2 °C in experiment [13]; 2.7 °C in experiment [15]; 0.2 °C in experiment [16]; -0.4 °C in experiment [17]; 1 °C in experiment [18]; 2 °C in experiment [19]. For the same molecule, the thermal shift (ΔTm) in experiment [20] came out at 0 °C.
In the case of `NC(=O)c1ccc2[nH]c(-c3ccc(Oc4ccc(Cl)cc4)cc3)nc2c1`, the ΔTm in [1] was 1.1 °C; in experiment [2] it was -0.1 °C; in experiment [3], -0.4 °C; in [4], -0.7 °C; in experiment [6], -1.2 °C; in experiment [7], -0.4 °C. Besides, the thermal shift (ΔTm) in experiment [8] was -0.2 °C; in experiment [9] it was 1.4 °C; in [10], -0.8 °C; in experiment [11] it was 0.4 °C; in [12], 1 °C; in experiment [13], 2.4 °C. Also, the thermal shift (ΔTm) is 0 °C in experiment [14]; 0.3 °C in experiment [15]; 1.7 °C in [16]; 1.3 °C in experiment [17]; -0.2 °C in experiment [18]; -1.6 °C in experiment [19]. Besides, the thermal shift (ΔTm) in experiment [20] was 1.2 °C.
`CN(C)CCCn1cc(C2=C(c3c[nH]c4ccccc34)C(=O)NC2=O)c2ccccc21` [GF-109203]: the thermal shift (ΔTm) in experiment [1] stood at 1.1 °C; in experiment [2], 2.9 °C; in experiment [3], 1.1 °C; in experiment [4], 1.7 °C; in experiment [5] it was 7.1 °C; in [6] it was 0.1 °C. In addition, the ΔTm is 0.7 °C in experiment [7]; 0.6 °C in experiment [8]; 0.7 °C in experiment [9]; 2.4 °C in experiment [10]; 5.2 °C in [12]; 0.3 °C in [13]. Moreover, the ΔTm in experiment [14] was 6.8 °C; in [15], 6.7 °C; in experiment [16], 0.3 °C; in experiment [17], 1.7 °C; in [18], 5.7 °C; in experiment [19] it was 2 °C. The ΔTm in experiment [20] came out at 0 °C.
Regarding `CN(C)C[C@@H]1CCn2cc(c3ccccc32)C2=C(C(=O)NC2=O)c2cn(c3ccccc23)CCO1` [RUBOXISTAURIN], the ΔTm is 1.6 °C in experiment [2]; 2.9 °C in experiment [3]; 0.9 °C in [4]; 3.5 °C in experiment [5]; 0.1 °C in experiment [6]; 0.3 °C in [7]. For the same molecule, the ΔTm in experiment [8] was found to be 0.5 °C; in experiment [9], 1.5 °C; in experiment [10], 0.8 °C; in [12] it was 2.1 °C; in [13], 1.8 °C; in experiment [14], 7 °C. Further, the ΔTm in [15] was 7.2 °C; in experiment [16] it was 0 °C; in [17] it was 4.1 °C; in experiment [18], 0.6 °C; in [19], -0.3 °C; in experiment [20], -0.3 °C.
